Laboratory results as given in article PMC2688463 (Journal of medicinal chemistry, 2008).

Tests used:
[1] = test system: MDA-MB-231 breast cancer cell line; assay: Cell growth assay; format: cell-based, human
[2] = test system: SK-OV-3 ovarian cancer cell line; assay: Cell growth assay; format: cell-based, human
MDA-MB-231 cell line = assay: Apoptosis assay; format: cell-based, human; conditions: 100 nM, 48 hours
[3] = target: recombinant human XIAP BIR3 protein (Homo sapiens, UniProt P98170); assay: Cell-free caspase-9 functional assay; format: biochemical; conditions: at concentrations as high as 100 μM
recombinant human XIAP BIR3 protein, sequence (P98170 241-356): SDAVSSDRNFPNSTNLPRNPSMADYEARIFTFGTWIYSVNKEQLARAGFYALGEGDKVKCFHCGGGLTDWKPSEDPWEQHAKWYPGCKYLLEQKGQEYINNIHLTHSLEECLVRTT

SMILES: CC[C@H](N)C(=O)N[C@H]1CCCC[C@H]2CC[C@@H](C(=O)NC(c3ccccc3)c3ccccc3)N2C1=O [Compound 17, (3S,6S,11S)-6-((S)-2-Amino-butyrylamino)-5-oxo-decahydro-pyrrolo[1,2-α]azocine-3-carboxylic acid benzhydryl-amide]
- cellular activity (cell growth inhibition) [1]: weak cellular activity
- cellular activity (cell growth inhibition) [2]: weak cellular activity

SMILES: CN[C@@H](C)C(=O)N[C@H]1CCCC[C@H]2CC[C@@H](C(=O)NC(c3ccccc3)c3ccccc3)N2C1=O [Compound 20, (3S,6S,11S)-6-((S)-2-Methylamino-propionylamino)-5-oxo-decahydro-pyrrolo[1,2-α]azocine-3-carboxylic acid benzhydryl-amide]
- induction of apoptosis (MDA-MB-231 cell line): robust apoptosis

SMILES: CC[C@H](NC)C(=O)N[C@H]1CCCC[C@H]2CC[C@@H](C(=O)NC(c3ccccc3)c3ccccc3)N2C1=O [Compound 21, (3S,6S,11S)-6-((S)-2-Methylamino-butyrylamino)-5-oxo-decahydro-pyrrolo[1,2-α]azocine-3-carboxylic acid benzhydryl-amide]
- induction of apoptosis (MDA-MB-231 cell line): robust apoptosis

SMILES: C[C@H](O)C(=O)N[C@H]1CCCC[C@H]2CC[C@@H](C(=O)NC(c3ccccc3)c3ccccc3)N2C1=O [Compound 24]
- restoration of caspase-9 activity [3]: no significant effect
- times less potent than compound 25 in cell growth inhibition [1]: > 30 times
- times less potent than compound 25 in cell growth inhibition [2]: > 30 times
